Laboratory results as given in the NIST ThermoML archive (doi:10.1021/acs.jced.8b00589).
± gives the expanded uncertainty stated by the source.

How the values were obtained:
[1] = for surface tension liquid-gas: Ring tensiometer; for viscosity / speed of sound / mass density: 100 kPa, Liquid; for viscosity: Capillary tube (Ostwald / Ubbelohde) method; for speed of sound: Frequency=2 MHz, Linear variable-path acoustic interferometer; for mass density: Vibrating tube method
[2] = xn = mol fraction of the nth substance listed; conditions: x2 = 0; for surface tension liquid-gas: Ring tensiometer; for viscosity / speed of sound / mass density: 100 kPa, Liquid; for viscosity: Capillary tube (Ostwald / Ubbelohde) method; for speed of sound: Frequency=2 MHz, Linear variable-path acoustic interferometer; for mass density: Vibrating tube method

SMILES	surface tension liquid-gas ([1]; 298.15 K)	viscosity ([1]; 298.15 K)	speed of sound ([1]; 298.15 K)	mass density ([1]; 298.15 K)	surface tension liquid-gas ([1]; 308.15 K)	viscosity ([1]; 308.15 K)	speed of sound ([1]; 308.15 K)	mass density ([1]; 308.15 K)	surface tension liquid-gas ([1]; 318.15 K)	viscosity ([1]; 318.15 K)	speed of sound ([1]; 318.15 K)	mass density ([1]; 318.15 K)	surface tension liquid-gas ([1]; 323.15 K)	viscosity ([1]; 323.15 K)	speed of sound ([1]; 323.15 K)	mass density ([1]; 323.15 K)	surface tension liquid-gas ([1]; 328.15 K)	viscosity ([1]; 328.15 K)	speed of sound ([1]; 328.15 K)	mass density ([1]; 328.15 K)	other results
Cc1cccc(C)c1 [1,3-dimethylbenzene]	28.19 ± 0.89 mN/m	0.59 ± 0.03 mPa·s	1320.9 ± 10 m/s	859.1 ± 1 kg/m3	26.95 ± 0.89 mN/m	0.525 ± 0.03 mPa·s	1280 ± 10 m/s	849.2 ± 1 kg/m3	25.64 ± 0.88 mN/m	0.482 ± 0.03 mPa·s	1238.2 ± 10 m/s	840.4 ± 1 kg/m3	25 ± 0.88 mN/m	0.443 ± 0.03 mPa·s	1218.4 ± 10 m/s	835.8 ± 1 kg/m3	24.37 ± 0.87 mN/m	0.433 ± 0.03 mPa·s	1195.2 ± 10 m/s	831.6 ± 1 kg/m3	
Cc1cccc(C)c1 [1,3-dimethylbenzene] + CCC(C)(C)OC																					surface tension liquid-gas ([2]; 298.15 K): 28.19 ± 0.89 mN/m; viscosity ([2]; 298.15 K): 0.59 ± 0.03 mPa·s; speed of sound ([2]; 298.15 K): 1320.9 ± 10 m/s; mass density ([2]; 298.15 K): 859.1 ± 1 kg/m3; surface tension liquid-gas ([2]; 308.15 K): 26.95 ± 0.89 mN/m; viscosity ([2]; 308.15 K): 0.525 ± 0.03 mPa·s; speed of sound ([2]; 308.15 K): 1280 ± 10 m/s; mass density ([2]; 308.15 K): 849.2 ± 1 kg/m3; surface tension liquid-gas ([2]; 318.15 K): 25.64 ± 0.88 mN/m; viscosity ([2]; 318.15 K): 0.482 ± 0.03 mPa·s; speed of sound ([2]; 318.15 K): 1238.2 ± 10 m/s; mass density ([2]; 318.15 K): 840.4 ± 1 kg/m3; surface tension liquid-gas ([2]; 323.15 K): 25 ± 0.88 mN/m; viscosity ([2]; 323.15 K): 0.443 ± 0.03 mPa·s; speed of sound ([2]; 323.15 K): 1218.4 ± 10 m/s; mass density ([2]; 323.15 K): 835.8 ± 1 kg/m3; surface tension liquid-gas ([2]; 328.15 K): 24.37 ± 0.87 mN/m; viscosity ([2]; 328.15 K): 0.433 ± 0.03 mPa·s; speed of sound ([2]; 328.15 K): 1195.2 ± 10 m/s; mass density ([2]; 328.15 K): 831.6 ± 1 kg/m3
CCC(C)(C)OC [2-methoxy-2-methylbutane]	19.72 ± 0.85 mN/m	0.424 ± 0.03 mPa·s	1118 ± 10 m/s	765.6 ± 1 kg/m3	18.66 ± 0.85 mN/m	0.39 ± 0.03 mPa·s	1075.6 ± 10 m/s	756.3 ± 1 kg/m3	17.65 ± 0.85 mN/m	0.357 ± 0.03 mPa·s	1031.1 ± 10 m/s	746.3 ± 1 kg/m3	17.13 ± 0.84 mN/m	0.34 ± 0.03 mPa·s	1003 ± 10 m/s	741.4 ± 1 kg/m3	16.62 ± 0.84 mN/m	0.328 ± 0.03 mPa·s	985.24 ± 10 m/s	736.5 ± 1 kg/m3	
CCCCCC [hexane]	17.75 ± 0.85 mN/m	0.295 ± 0.03 mPa·s	1073.2 ± 10 m/s	654.7 ± 1 kg/m3	16.63 ± 0.84 mN/m	0.263 ± 0.03 mPa·s	1031.2 ± 10 m/s	645.4 ± 1 kg/m3	15.52 ± 0.84 mN/m	0.24 ± 0.03 mPa·s	981.26 ± 10 m/s	636.2 ± 1 kg/m3	14.96 ± 0.84 mN/m	0.232 ± 0.03 mPa·s	960.75 ± 10 m/s	631.2 ± 1 kg/m3	14.41 ± 0.83 mN/m	0.223 ± 0.03 mPa·s	940.39 ± 10 m/s	626.4 ± 1 kg/m3	
CCCCCC [hexane] + CCC(C)(C)OC																					surface tension liquid-gas ([2]; 298.15 K): 17.75 ± 0.85 mN/m; viscosity ([2]; 298.15 K): 0.295 ± 0.03 mPa·s; speed of sound ([2]; 298.15 K): 1073.2 ± 10 m/s; mass density ([2]; 298.15 K): 654.7 ± 1 kg/m3; surface tension liquid-gas ([2]; 308.15 K): 16.63 ± 0.84 mN/m; viscosity ([2]; 308.15 K): 0.263 ± 0.03 mPa·s; speed of sound ([2]; 308.15 K): 1031.2 ± 10 m/s; mass density ([2]; 308.15 K): 645.4 ± 1 kg/m3; surface tension liquid-gas ([2]; 318.15 K): 15.52 ± 0.84 mN/m; viscosity ([2]; 318.15 K): 0.24 ± 0.03 mPa·s; speed of sound ([2]; 318.15 K): 981.23 ± 10 m/s; mass density ([2]; 318.15 K): 636.2 ± 1 kg/m3; surface tension liquid-gas ([2]; 323.15 K): 14.96 ± 0.84 mN/m; viscosity ([2]; 323.15 K): 0.232 ± 0.03 mPa·s; speed of sound ([2]; 323.15 K): 960.75 ± 10 m/s; mass density ([2]; 323.15 K): 631.2 ± 1 kg/m3; surface tension liquid-gas ([2]; 328.15 K): 14.41 ± 0.83 mN/m; viscosity ([2]; 328.15 K): 0.223 ± 0.03 mPa·s; speed of sound ([2]; 328.15 K): 940.35 ± 10 m/s; mass density ([2]; 328.15 K): 626.4 ± 1 kg/m3
